Laboratory results taken from patent US8575214B2, “MGlu 2/3 agonists” (Eli Lilly and Company, priority 2012, dated 2013).

What was measured:
[1] = tested on: male Sprague-Dawley rats; test: Reversal of persistent pain induced by formalin injection; type: in vivo; details: po, 2 h, dosed two hours prior to intraplantar formalin, rat
[2] = tested on: rats; test: Reversal of CFA-induced mechanical hyperalgesia (Randall Sellito test); type: in vivo, rat; details: mean ± SEM, p<0.05 vs vehicle
Method: Induction of local inflammation in the rat hind paw will cause a persistent mechanical hyperalgesia that can be measured by determining the threshold to pressure stimuli to give a painful response. The method for complete Freund's adjuvant (CFA) induced mechanical hyperalgesia in rats is largely described in Iadarola et al. Brain Res. (1988) 455, 205-212. Rats are placed under isoflurane anesthesia while the right paw is injected with 50 μl of CFA (Sigma C5881, 1 mg/ml mycobacterium extract in 85% paraffin oil, 15% mannide monooleate) intraplantar. Animals are allowed to recover in soft bedding cages and mechanical hyperalgesia changes measured 24 hours post-CFA injection. Mechanical hyperalgesia (Randall Sellito Test) is determined by gently restraining the rat and placing the paw between the plinth and pusher (Ugo Basile Analgesy-meter). The gram force when the animal withdraws the paw is recorded.
Rats are tested for baseline response prior to CFA injection. Post-CFA response is tested the next morning (about 24 hours post injection of CFA). Rats are randomized based on post-CFA response with any rat showing a score of >150 grams excluded from further testing. A test compound (prodrug) is orally dosed within a range of 1.5 to 15 mg/kg and mechanical threshold for paw withdrawal is measured at 1 and 2 hours post dosing. Statistical significance is defined as a p value <0.05 in an analysis of covariance followed by a Dunnett's post hoc test for each time point. Table 2 below provides the statistically significant results for Example 10 run substantially as above.

[3] = tested on: rats; test: Reversal of L5/L6 nerve ligation induced tactile allodynia; type: in vivo, rat; details: 15 mg/kg orally, n=8, ±SEM
Method: Unilateral ligation of nerves innervating the hind leg region will result in a chronic persistent pain manifested as tactile allodynia in rats. L5/L6 nerve ligation is performed (Kim et al. Pain (1992) 50, 355-363). Neuropathic injury is produced by tightly ligating the left L5 and L6 spinal nerves under gaseous anesthesia with a mixture of isoflurane (3% for induction and 2% for maintenance) and oxygen. After a minimum of 14 days after surgery, tactile allodynia is evaluated by measuring tactile sensitivity of the injured paw to von Frey filaments with incremental bending forces (0.3 to 15 g) (Chaplan et al. J. of Neuroscience Methods (1994) 53, 55-63). […] Baseline values are determined immediately prior to assessment of test compound. A test compound (prodrug) is orally dosed at 15 mg/kg and the tactile threshold for paw withdrawal is measured at 1, 2 and 4 hours post dosing. Data are expressed as response threshold in grams (g) and values are with standard errors of means (±SE mean) for each time point. Data are analyzed using an analysis of variance followed by a Dunnett's post hoc analysis and represent absolute change in pain threshold (Cmax=maximum Response Baseline) and expressed as Mean [log (maximum response)−log predose score)] (g).

[4] = tested on: Male Sprague Dawley rats; test: Reversal of colorectal distension-induced pain behaviors; type: in vivo, rat; details: 90 minutes post dosing, mean ± SEM
Method: Visceral pain in rats can be induced by distension of the colorectal cavity and pain monitored by accessing the reflex contraction of abdominal muscles. Measurement of abdominal muscle reflex contractions with pain caused by colorectal distension in the rat is performed substantially as described by Fioramonti et al. Neurogastroenterology and Motility (2003) 15, 363-369 and Urban et al. J. of Pharmacology and Exp. Ther. (1999) 290, 207-213. Male Sprague Dawley rats are surgically implanted with electromyographic (EMG) electrodes in the oblique abdominal muscle and allowed to recover for one week, during which animals are acclimated to handling and partial restraint to minimize effects of stress. Baseline EMG measurements are collected and recorded after the insertion into the rectum (8 cm) of a lubricated latex balloon attached to a pressure monitor/regulator to step the pressure between 20, 40, and 60 mm Hg for a 20 second duration with a 3 minute resting period between trials. A set of three exposures at each pressure is recorded before stepping the pressure up to the next level. Data are collected as the area under the curve for EMG reading (volts per second) during the pressure stimulations, and averaged over the three trials. A test compound (prodrug) is orally dosed within a range of 1.5 to 17 mg/kg 90 minutes prior to the beginning of the colorectal distension. Statistical significance is defined as a p value <0.05 in an analysis of covariance followed by a Dunnett's post hoc test. Table 3 below provides the statistically significant results for Example 10 run substantially as above.

## C[C@H](N)C(=O)N[C@@]1(C(=O)O)CC2(CC2)[C@H]2[C@H](C(=O)O)[C@H]21 [Example 10, (1S,2S,5R,6S)-2-[[(2S)-2-Aminopropanoyl]amino]spiro[bicyclo[3.1.0]hexane-4,1′-cyclopropane]-2,6-dicarboxylic acid dihydrate]
[1]
  ED50: 4.8 mg/kg
[2]; 1.5 mg/kg po, one hour post dosing, group pre CFA 243 ± 5, 24 hours post CFA 113 ± 8
  Paw withdrawal Threshold: 180 ± 14 grams, force
[2]; 1.5 mg/kg po, two hours post dosing, group pre CFA 243 ± 5, 24 hours post CFA 113 ± 8
  Paw withdrawal Threshold: 186 ± 19 grams, force
[2]; 4.5 mg/kg po, one hour post dosing, group pre CFA 221 ± 10, 24 hours post CFA 114 ± 9
  Paw withdrawal Threshold: 153 ± 20 grams, force
[2]; 4.5 mg/kg po, two hours post dosing, group pre CFA 221 ± 10, 24 hours post CFA 114 ± 9
  Paw withdrawal Threshold: 221 ± 20 grams, force
[2]; 15 mg/kg po, one hour post dosing, group pre CFA 244 ± 4, 24 hours post CFA 108 ± 12, cut-off 250 grams
  Paw withdrawal Threshold: 250 ± 0 grams, force
[2]; 15 mg/kg po, two hours post dosing, group pre CFA 244 ± 4, 24 hours post CFA 108 ± 12
  Paw withdrawal Threshold: 232 ± 15 grams, force
[3]; four hours post dosing, vehicle 2.35±0.62
  mechanical threshold (von Frey, paw withdrawal): 8.63 ± 1.98 g
[3]; one hour post dosing, vehicle 1.50±0.60
  mechanical threshold (von Frey, paw withdrawal): 9.06 ± 2.26 g
[3]; two hours post dosing, vehicle 1.34±0.75
  mechanical threshold (von Frey, paw withdrawal): 12.31 ± 1.86 g
[4]; 1.5 mg/kg po, pre-dosing baseline 853 ± 142, vehicle 849 ± 65
  AUC of EMG reading for abdominal muscle with 60 mmHg colorectal pressure: 618 ± 92 μV/sec
[4]; 4.5 mg/kg po, pre-dosing baseline 887 ± 152, p<0.05 vs vehicle
  AUC of EMG reading for abdominal muscle with 60 mmHg colorectal pressure: 531 ± 99 μV/sec
[4]; 17 mg/kg po, pre-dosing baseline 773 ± 134, p<0.05 vs vehicle
  AUC of EMG reading for abdominal muscle with 60 mmHg colorectal pressure: 266 ± 87 μV/sec
